Source: patent publication US10322110B2, “Imidazole-based antimicrobial agents” (priority 2014, dated 2019)
In brackets after ≈: the same amount, converted by molar mass. Like-named read-outs stand apart in the source and are kept apart here.

Tests used:
[1] = tested on: penicillin-, erythromycin- and tetracycline-resistant Streptococcus pneumoniae (ATCC 700677), ARSP; assay: microbe, parasite or virus in culture; assay type: cell-based; details: ATCC700677, MIC activity class, read-out: Antibacterial activity ARSP (multi-drug resistant-SP)
[2] = tested on: Bacillus subtilis (Marburg strain, ATCC6051); assay: microbe, parasite or virus in culture; assay type: cell-based; details: ATCC6051, read-out: Antibacterial activity BS (Bacillus substilis)
[3] = tested on: Staphylococcus aureus MRSA (COL); assay: broth microdilution MIC assay, Staphylococcus aureus MRSA (COL); assay type: cell-based; details: for MIC: Staphylococcus aureus, MRSA
[4] = tested on: Staphylococcus epidermidis (PCI 1200, ATCC12228); assay: broth microdilution MIC assay, Staphylococcus epidermidis; assay type: cell-based; details: ATCC12228, read-out: Antibacterial activity SE (Staphylococcus epidermidis)
[5] = tested on: Mycobacterium smegmatis (mc(2)155, ATCC700084); assay: broth microdilution MIC assay, Mycobacterium smegmatis; details: MIC activity class
[6] = tested on: Human hepatocytes (HepaRG cells); assay: human cytotoxicity assay in vitro (CellTiter-Glo), hepatocytes; assay type: cell-based; details: cytotoxicity class
[7] = tested on: Staphylococcus aureus MSSA (Newman); assay: broth microdilution MIC assay, Staphylococcus aureus MSSA (Newman); assay type: cell-based; details: for Antibacterial activity Staphylococcus aureus (MSSA): MIC100 class score, broth microdilution; for MIC: Staphylococcus aureus
[8] = tested on: Escherichia coli TolC mutant strain ΔtoIC (K12 b3035 TolC; JW5503); assay type: cell-based; details: MIC activity class
[9] = tested on: vancomycin-resistant Staphylococcus aureus; assay: broth microdilution MIC assay,  MRSA (COL); assay type: cell-based; details: read-out: MIC for the resistant strain
[10] = read-out: Antibacterial activity MRSA (Staphylococcus aureus MRSA)
[11] = read-out: Antibacterial activity MSSA (Staphylococcus aureus MSSA)
[12] = 24 h, read-out: Antibacterial activity Staphylococcus aureus (MSSA)

What does the source list for Cc1nc(-c2ccc(-c3cccc(OC(F)(F)F)c3)o2)[nH]c1-c1ccc(F)cc1 [Compound 37]?
MIC [1]: 2 to 5 µg/mL (≈ 4.97 to 12.4 µM); MIC [2]: 3 to 10 µg/mL (≈ 7.46 to 24.9 µM); MIC [3, 10]: 3 to 10 µg/mL (≈ 7.46 to 24.9 µM); MIC [4]: 20 to 50 µg/mL (≈ 49.7 to 124 µM); Antibacterial activity MS (Mycobacterium smegmatis) [5]: 2 (MIC100 of 11-201 μg/ml); cytotoxicity cell line H (hepatocytes) [6]: 3; Antibacterial activity Staphylococcus aureus (MSSA) ([7]; 24 h): 3 (MIC100 of 3-10 μg/ml); MIC [7, 11]: 3 to 10 µg/mL (≈ 7.46 to 24.9 µM)

How did the MIC [1] turn out when Cc1[nH]c(-c2ccc(-c3cccc(F)c3C)o2)nc1-c1ccccc1 [Compound 60] was run?
Its MIC is 2 to 5 µg/mL (≈ 6.02 to 15 µM).

And the MIC [2]?
The MIC was 3 to 10 µg/mL (≈ 9.03 to 30.1 µM).

And the MIC ([3]; 24 h, read-out: Antibacterial activity Staphylococcus aureus (MRSA))?
Its MIC is 20 to 50 µg/mL (≈ 60.2 to 150 µM).

What about the MIC [3, 10] of the same compound?
The MIC was 20 to 50 µg/mL (≈ 60.2 to 150 µM).

And the MIC [4]?
Its MIC is 20 to 50 µg/mL (≈ 60.2 to 150 µM).

And the “Antibacterial activity MS (Mycobacterium smegmatis)” value [5]?
Its value is 2 (MIC100 of 11-201 μg/ml).

What about the “cytotoxicity cell line H (hepatocytes)” value [6] of the same compound?
Its value is 3.

And the MIC [7, 12]?
The MIC was 3 to 10 µg/mL (≈ 9.03 to 30.1 µM).

And the MIC [7, 11]?
The MIC was 3 to 10 µg/mL (≈ 9.03 to 30.1 µM).

How did the MIC [1] turn out when Cc1ccccc1-c1c[nH]c(-c2ccc(-c3ccccc3OC(F)(F)F)o2)n1 [Compound 66] was run?
Its MIC is 2 to 5 µg/mL (≈ 5.2 to 13 µM).

And the MIC [2]?
Its MIC is 3 to 10 µg/mL (≈ 7.81 to 26 µM).

What about the “Antibacterial activity Staphylococcus aureus (MRSA)” value ([3]; MIC100 class score, broth microdilution, 24 h) of the same compound?
The value was 2 (MIC100 of 11-201 μg/ml).

What about the MIC [3, 10] of the same compound?
The MIC was 11 to 201 µg/mL (≈ 28.6 to 523 µM).

What about the MIC [4] of the same compound?
Its MIC is 20 to 50 µg/mL (≈ 52 to 130 µM).

What about the “Antibacterial activity MS (Mycobacterium smegmatis)” value [5] of the same compound?
The value was 2 (MIC100 of 11-201 μg/ml).

And the “cytotoxicity cell line H (hepatocytes)” value [6]?
Its value is 3.

What about the “Antibacterial activity Staphylococcus aureus (MSSA)” value ([7]; 24 h) of the same compound?
The value was 3 (MIC100 of 3-10 μg/ml).

What about the MIC [7, 11] of the same compound?
Its MIC is 3 to 10 µg/mL (≈ 7.81 to 26 µM).

CN(C)Cc1[nH]c(-c2ccc(-c3ccccc3C(F)(F)F)o2)nc1-c1ccccc1 [Compound 70] was tested. Which MIC [2] did it give?
The MIC was 20 to 50 µg/mL (≈ 48.6 to 122 µM).

What about the MIC [3, 10] of the same compound?
Its MIC is 20 to 50 µg/mL (≈ 48.6 to 122 µM).

What about the MIC ([3]; MIC100 class score, broth microdilution, 24 h, read-out: Antibacterial activity Staphylococcus aureus (MRSA)) of the same compound?
Its MIC is 20 to 50 µg/mL (≈ 48.6 to 122 µM).

And the MIC [4]?
Its MIC is 11 to 201 µg/mL (≈ 26.7 to 489 µM).

What about the “cytotoxicity cell line H (hepatocytes)” value [6] of the same compound?
Its value is 3.

And the “Antibacterial activity EC Δ (Escherichia coli ΔtoIC)” value [8]?
The value was 3 (MIC100 of 3-10 μg/ml).

What about the MIC [7, 12] of the same compound?
Its MIC is 20 to 50 µg/mL (≈ 48.6 to 122 µM).

And the MIC [7, 11]?
Its MIC is 20 to 50 µg/mL (≈ 48.6 to 122 µM).

With CN[C@H](CC(C)C)C(=O)N[C@H]1C(=O)N[C@@H](CC(N)=O)C(=O)N[C@H]2C(=O)N[C@H]3C(=O)N[C@H](C(=O)N[C@H](C(=O)O)c4cc(O)cc(O)c4-c4cc3ccc4O)[C@H](O)c3ccc(c(Cl)c3)Oc3cc2cc(c3O[C@@H]2O[C@H](CO)[C@@H](O)[C@H](O)[C@H]2O[C@H]2C[C@](C)(N)[C@H](O)[C@H](C)O2)Oc2ccc(cc2Cl)[C@H]1O [vancomycin, Vancomycin] as the compound, how does the MIC [9] read?
Its MIC is 20 µg/mL (≈ 13.8 µM).
